In patent US12673039B2, “Methods of inducing autophagy using coumarin derivatives and related compounds” (Buck Institute for Research on Aging, priority 2019, dated 2026):

How the values were obtained:
TFEB [1] = assay: qPCR of TFEB and downstream target genes in differentiated SY5Y cells; type: cell-based, human; settings: qPCR (FIG. 6)
Text: Relative expression of TFEB and downstream target genes as assessed by qPCR from mRNA extracted from differentiated SY5Y cells treated with C1 (AIC106) versus vehicle-treated controls. Values represent fold induction versus controls, *p<0.01. Run in triplicate in 3 independent experiments.
In vitro drug screening studies. […] We utilized for these studies a 3000 compound natural product derivative library (Timtec, Newark, DE) in […] transfected with a sensitive TFEB promotor-Gaussian luciferase construct. […] C1 is a coumarin-related compound, part of a family of natural benzopyrones found in many edible plants.

TFEB [2] = assay: qRT-PCR of tfeb and its targets in N27 neuronal cells; type: cell-based, rat
Procedure: (§1) FIG. 18, panels A-F: AIC106 (Autophagy Inducing Coumarin-106) induces transcription of TFEB and its targets in vitro in rat N27 neuronal cells and in vivo in C. elegans. Panel A) Relative fold change in TFEB promoter activity compared to DMSO-control was determined by quantifying luciferase activity in supernatants collected from rat N27 neuronal cells post-24 hour treatment with C1 (AIC106), D1 and D2. [n=3 independent experiments (mean±SEM), **p<0.01, by one-way ANOVA with Dunnett's multiple comparisons test]. Panel B) Chemical structure of AIC106 and its structural derivative D1 and D2. Panel C) Relative fold change in mRNA of tfeb and its targets compared to DMSO-control were quantified using qRT-PCR in N27 neuronal cells post-24 hour treatment with AIC106 [N=3 independent experiments (mean±SD). *p<0.05, **p<0.01 and ****p<0.0001, by two-way ANOVA with Sidak's multiple comparisons test]. Panel D) Changes in HLH-30 expression were measured by quantifying GFP intensity in an individual GFP-tagged HLH-30 strain (MAH235) post-24 hours treatment with AIC106 and DMSO-control. […] Panel E) HLH-30; GFP (MAH235) were monitored by fluorescence microscopy. Panel F) Relative fold change in mRNA of hlh-30 and its targets compared to DMSO-control were quantified using qRT-PCR in young adult wild type N2 worms post-24 hours treatment with AIC106. […]

human TFEB promoter = assay: TFEB promoter secreted-luciferase assay in rat N27 neuronal cells; type: cell-based; settings: 24 hour treatment, versus DMSO-control (FIG. 18, panel A)
Procedure: as §1

[3] = test system: worms expressing human Abeta and alpha-synuclein; assay: Neurodegenerative C. elegans models expressing human Abeta and alpha-synuclein (Example 1); type: in vivo; settings: worms expressing human Abeta and alpha-synuclein (FIG. 11)
Procedure: FIGS. 11A-11D illustrate that coumarin 106 (“C1”, “AIC106”) is protective in a TFEB-dependent manner in C. elegans models that express human neurotoxic proteins. FIG. 11A) Transgenic worm strain expressing human alpha-synuclein under control of the dopamine-specific promoter grown on control or HLH-30 RNAi were exposed to 20 μM C1 versus DMSO-only controls on day-1 of adulthood. GFP+ cell counts were performed in young adults. Values represent number of animals displaying no DAergic cell loss; pooled results from 2 independent experiments. FIG. 11B) Transgenic worm strain expressing human alpha-synuclein under control of the muscle-specific promoter grown on control or HLH-30 RNAi were exposed to 20 μM C1 versus DMSO-only control on day-1 of adulthood followed by transfer to fresh plates every alternative day. Number of trashes per 30 sec were measured at day-6 and day-7 (n>60). *p<0.03, ***p<0.0008, ****p<0.0001. FIG. 11C) Transgenic worms expressing Abeta tagged with GFP within glutaminergic neurons grown on control or HLH-30 RNAi were exposed to 50 or 200 μM C1 versus DMSO-only controls on day-1 of adulthood. GFP+ cell counts were performed in young adults. Values represent % intact neurons. […] Number of trashes per 30 sec were measured at day-6 and day-7 (n>60). *p<0.03, ****p<0.0001. […]

With `O=c1oc2c3c4c(cc2c2c1CCC2)CCCN4CCC3` [C1, 2,3,6,7,10,11-Hexahydro-1H,5H-cyclopenta(3,4)(1)benzopyrano(6,7,8-ij)quinolizin-12(9H)-one] the TFEB expression (TFEB [1]) was “significant dose-dependent elevations in TFEB expression”, the “downstream TFEB target genes” value (TFEB [1]) was “up-regulation of several downstream TFEB target genes” and the “TFEB mRNA levels” value (TFEB [2]; 24 hour treatment) was “increased TFEB mRNA levels”. The “downstream TFEB target genes expression” value (TFEB [2]; 24 hour treatment (FIG. 18, panel C)) was “increased expression of downstream TFEB target genes”, the “luciferase transcription (TFEB promoter activity)” value (human TFEB promoter) was 6-7 fold and the “protection in neurodegenerative C. elegans models” value [3] was “protection in a TFEB-dependent manner”.
